{
  "source": "ChEMBL document CHEMBL1641539",
  "about": "(Bioorg Med Chem Lett, 2011)",
  "key": {"[1]": {"target": "Calcium/calmodulin-dependent protein kinase type 1D (Homo sapiens) (UniProt Q8IU85)", "sequence (Q8IU85 whole entry, looked up)": "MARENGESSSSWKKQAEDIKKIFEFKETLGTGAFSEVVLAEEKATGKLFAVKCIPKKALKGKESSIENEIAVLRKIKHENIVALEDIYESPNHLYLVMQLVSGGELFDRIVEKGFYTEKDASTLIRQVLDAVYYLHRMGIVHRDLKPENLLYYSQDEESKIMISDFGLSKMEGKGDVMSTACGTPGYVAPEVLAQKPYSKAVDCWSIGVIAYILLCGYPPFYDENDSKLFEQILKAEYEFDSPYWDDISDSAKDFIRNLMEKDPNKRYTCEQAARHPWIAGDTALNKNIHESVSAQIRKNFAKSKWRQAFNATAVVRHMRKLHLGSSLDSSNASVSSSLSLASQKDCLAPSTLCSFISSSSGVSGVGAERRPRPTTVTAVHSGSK", "assay": "Inhibition of human CaMK1delta at 10 uM after 60 mins by TR-FRET assay; values are per cent of control"}, "[2]": {"target": "T1, Mitogen-activated protein kinase 1 (Homo sapiens, UniProt P28482)", "T1 sequence (P28482 whole entry)": "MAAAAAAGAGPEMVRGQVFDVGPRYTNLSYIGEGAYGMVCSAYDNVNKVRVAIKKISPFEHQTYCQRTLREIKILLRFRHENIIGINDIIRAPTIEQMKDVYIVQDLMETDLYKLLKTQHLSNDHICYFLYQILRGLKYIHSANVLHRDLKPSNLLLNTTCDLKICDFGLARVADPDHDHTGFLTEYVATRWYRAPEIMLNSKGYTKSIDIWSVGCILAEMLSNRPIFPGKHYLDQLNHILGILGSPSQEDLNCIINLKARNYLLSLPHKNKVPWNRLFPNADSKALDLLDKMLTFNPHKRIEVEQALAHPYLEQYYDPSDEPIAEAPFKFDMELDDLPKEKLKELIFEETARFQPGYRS", "assay": "Inhibition of human MAPK1 at 10 uM after 60 mins by TR-FRET assay", "details": "values are per cent of control"}, "[3]": {"target": "Fibroblast growth factor receptor 4 (Homo sapiens) (UniProt P22455)", "assay": "Inhibition of human FGFR4 at 10 uM after 60 mins by TR-FRET assay; values are per cent of control"}, "[4]": {"target": "Cyclin-dependent kinase 5/CDK5 activator 1 (Homo sapiens) (UniProt Q00535+Q15078)", "assay": "Inhibition of human CDK5/p35 at 10 uM after 60 mins by TR-FRET assay; values are per cent of control"}, "[5]": {"target": "Serine/threonine-protein kinase 33 (Homo sapiens) (UniProt Q9BYT3)", "assay": "Inhibition of human STK33 at 10 uM after 60 mins by TR-FRET assay; values are per cent of control"}, "[6]": {"target": "Serine/threonine-protein kinase TAO1 (Homo sapiens) (UniProt Q7L7X3)", "assay": "Inhibition of human TAO1 at 10 uM after 60 mins by TR-FRET assay; values are per cent of control"}, "[7]": {"target": "Cyclin-dependent kinase 1/cyclin B (Homo sapiens) (UniProt P06493+P14635+Q8WWL7+O95067)", "assay": "Residual activity of human CDK1/cyclinB at 10 uM after 60 mins by TR-FRET assay"}, "[8]": {"target": "Calcium/calmodulin-dependent protein kinase type 1 (Homo sapiens) (UniProt Q14012)", "sequence (Q14012 whole entry, looked up)": "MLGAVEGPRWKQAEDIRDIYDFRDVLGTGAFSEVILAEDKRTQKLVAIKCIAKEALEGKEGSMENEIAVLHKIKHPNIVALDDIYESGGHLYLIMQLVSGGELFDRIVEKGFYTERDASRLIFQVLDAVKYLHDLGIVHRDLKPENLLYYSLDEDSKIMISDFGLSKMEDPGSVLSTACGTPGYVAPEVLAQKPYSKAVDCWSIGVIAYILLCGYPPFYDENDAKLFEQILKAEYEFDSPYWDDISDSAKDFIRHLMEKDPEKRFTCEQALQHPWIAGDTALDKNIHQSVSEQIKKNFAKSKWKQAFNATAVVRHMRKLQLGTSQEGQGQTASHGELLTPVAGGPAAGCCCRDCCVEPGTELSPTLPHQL", "assay": "Inhibition of human CaMK1 at 10 uM after 60 mins by TR-FRET assay; values are per cent of control"}, "[9]": {"target": "Vascular endothelial growth factor receptor 2 (Homo sapiens) (UniProt P35968)", "assay": "Inhibition of human KDR at 10 uM after 60 mins by TR-FRET assay; values are per cent of control"}, "[10]": {"target": "Calcium/calmodulin-dependent protein kinase type II subunit gamma (Homo sapiens) (UniProt Q13555)", "assay": "Inhibition of human CaMK2gamma at 10 uM after 60 mins by TR-FRET assay; values are per cent of control"}, "[11]": {"target": "Serine/threonine-protein kinase 10 (Homo sapiens) (UniProt O94804)", "sequence (O94804 whole entry, looked up)": "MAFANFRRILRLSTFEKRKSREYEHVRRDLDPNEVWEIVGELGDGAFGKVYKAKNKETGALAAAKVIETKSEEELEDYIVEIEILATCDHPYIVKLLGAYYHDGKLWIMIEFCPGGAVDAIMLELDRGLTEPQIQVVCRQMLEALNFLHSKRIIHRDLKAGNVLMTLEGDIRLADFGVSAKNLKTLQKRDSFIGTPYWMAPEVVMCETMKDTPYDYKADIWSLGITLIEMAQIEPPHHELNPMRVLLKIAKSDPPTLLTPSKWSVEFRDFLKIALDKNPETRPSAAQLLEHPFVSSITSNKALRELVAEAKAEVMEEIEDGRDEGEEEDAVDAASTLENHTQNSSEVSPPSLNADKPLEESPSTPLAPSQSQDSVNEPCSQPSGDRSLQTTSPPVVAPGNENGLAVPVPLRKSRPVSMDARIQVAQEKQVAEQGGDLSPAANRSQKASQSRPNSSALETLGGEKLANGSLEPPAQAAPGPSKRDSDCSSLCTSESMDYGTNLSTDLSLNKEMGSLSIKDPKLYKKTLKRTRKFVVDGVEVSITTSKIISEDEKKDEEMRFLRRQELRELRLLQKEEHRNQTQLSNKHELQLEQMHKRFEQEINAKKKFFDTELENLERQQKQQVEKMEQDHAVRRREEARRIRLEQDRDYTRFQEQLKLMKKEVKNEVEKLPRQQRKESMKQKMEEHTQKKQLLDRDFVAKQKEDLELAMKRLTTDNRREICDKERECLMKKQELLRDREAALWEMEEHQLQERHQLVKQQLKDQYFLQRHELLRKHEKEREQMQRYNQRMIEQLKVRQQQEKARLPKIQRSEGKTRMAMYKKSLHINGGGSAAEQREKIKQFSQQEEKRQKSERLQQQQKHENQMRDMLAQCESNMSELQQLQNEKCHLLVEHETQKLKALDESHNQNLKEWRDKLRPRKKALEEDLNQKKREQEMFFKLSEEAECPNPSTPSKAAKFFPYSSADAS", "assay": "Inhibition of human LOK at 10 uM after 60 mins by TR-FRET assay", "details": "values are per cent of control"}, "[12]": {"target": "Protein-tyrosine kinase 6 (Homo sapiens) (UniProt Q13882)", "assay": "Inhibition of human BRK at 10 uM after 60 mins by TR-FRET assay; values are per cent of control"}, "[13]": {"target": "Myotonin-protein kinase (Homo sapiens) (UniProt Q09013)", "assay": "Inhibition of human DMPK at 10 uM after 60 mins by TR-FRET assay; values are per cent of control"}, "[14]": {"target": "RAC-beta serine/threonine-protein kinase (Homo sapiens) (UniProt P31751)", "assay": "Inhibition of human PKBbeta at 10 uM after 60 mins by TR-FRET assay; values are per cent of control"}, "[15]": {"target": "High affinity nerve growth factor receptor (Homo sapiens) (UniProt P04629)", "sequence (P04629 33-796 limits assumed)": "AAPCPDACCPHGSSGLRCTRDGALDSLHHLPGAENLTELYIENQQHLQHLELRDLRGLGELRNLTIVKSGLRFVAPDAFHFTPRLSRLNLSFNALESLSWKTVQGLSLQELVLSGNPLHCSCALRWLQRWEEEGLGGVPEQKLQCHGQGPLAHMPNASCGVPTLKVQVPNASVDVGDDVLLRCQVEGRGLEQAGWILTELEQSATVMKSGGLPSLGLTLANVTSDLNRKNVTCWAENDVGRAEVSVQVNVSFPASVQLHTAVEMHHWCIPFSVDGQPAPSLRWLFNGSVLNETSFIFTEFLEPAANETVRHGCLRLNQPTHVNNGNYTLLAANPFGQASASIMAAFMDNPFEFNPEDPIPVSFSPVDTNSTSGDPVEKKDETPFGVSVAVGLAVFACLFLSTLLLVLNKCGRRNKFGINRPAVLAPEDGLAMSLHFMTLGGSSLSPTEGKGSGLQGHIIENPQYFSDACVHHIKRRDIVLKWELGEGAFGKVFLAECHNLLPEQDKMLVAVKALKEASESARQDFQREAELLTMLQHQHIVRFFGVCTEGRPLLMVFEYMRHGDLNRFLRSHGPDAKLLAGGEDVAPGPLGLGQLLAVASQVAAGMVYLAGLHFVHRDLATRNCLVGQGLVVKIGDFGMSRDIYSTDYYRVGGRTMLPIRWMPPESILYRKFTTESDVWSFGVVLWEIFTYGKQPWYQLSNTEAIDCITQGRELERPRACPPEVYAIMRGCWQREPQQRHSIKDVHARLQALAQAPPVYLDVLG", "assay": "Inhibition of human TrkA at 10 uM after 60 mins by TR-FRET assay", "details": "values are per cent of control"}, "[16]": {"target": "Mitogen-activated protein kinase 1 (Mus musculus) (UniProt P63085)", "assay": "Inhibition of mouse MAPK2 at 10 uM after 60 mins by TR-FRET assay; values are per cent of control"}, "[17]": {"target": "Serine/threonine-protein kinase haspin (Homo sapiens) (UniProt Q8TF76)", "assay": "Inhibition of human Haspin at 10 uM after 60 mins by TR-FRET assay; values are per cent of control"}, "[18]": {"target": "Inhibitor of nuclear factor kappa-B kinase subunit beta (Homo sapiens) (UniProt O14920)", "assay": "Inhibition of human IKK-beta at 10 uM after 60 mins by TR-FRET assay; values are per cent of control"}, "[19]": {"target": "Ephrin type-A receptor 4 (Homo sapiens) (UniProt P54764)", "sequence (P54764 whole entry)": "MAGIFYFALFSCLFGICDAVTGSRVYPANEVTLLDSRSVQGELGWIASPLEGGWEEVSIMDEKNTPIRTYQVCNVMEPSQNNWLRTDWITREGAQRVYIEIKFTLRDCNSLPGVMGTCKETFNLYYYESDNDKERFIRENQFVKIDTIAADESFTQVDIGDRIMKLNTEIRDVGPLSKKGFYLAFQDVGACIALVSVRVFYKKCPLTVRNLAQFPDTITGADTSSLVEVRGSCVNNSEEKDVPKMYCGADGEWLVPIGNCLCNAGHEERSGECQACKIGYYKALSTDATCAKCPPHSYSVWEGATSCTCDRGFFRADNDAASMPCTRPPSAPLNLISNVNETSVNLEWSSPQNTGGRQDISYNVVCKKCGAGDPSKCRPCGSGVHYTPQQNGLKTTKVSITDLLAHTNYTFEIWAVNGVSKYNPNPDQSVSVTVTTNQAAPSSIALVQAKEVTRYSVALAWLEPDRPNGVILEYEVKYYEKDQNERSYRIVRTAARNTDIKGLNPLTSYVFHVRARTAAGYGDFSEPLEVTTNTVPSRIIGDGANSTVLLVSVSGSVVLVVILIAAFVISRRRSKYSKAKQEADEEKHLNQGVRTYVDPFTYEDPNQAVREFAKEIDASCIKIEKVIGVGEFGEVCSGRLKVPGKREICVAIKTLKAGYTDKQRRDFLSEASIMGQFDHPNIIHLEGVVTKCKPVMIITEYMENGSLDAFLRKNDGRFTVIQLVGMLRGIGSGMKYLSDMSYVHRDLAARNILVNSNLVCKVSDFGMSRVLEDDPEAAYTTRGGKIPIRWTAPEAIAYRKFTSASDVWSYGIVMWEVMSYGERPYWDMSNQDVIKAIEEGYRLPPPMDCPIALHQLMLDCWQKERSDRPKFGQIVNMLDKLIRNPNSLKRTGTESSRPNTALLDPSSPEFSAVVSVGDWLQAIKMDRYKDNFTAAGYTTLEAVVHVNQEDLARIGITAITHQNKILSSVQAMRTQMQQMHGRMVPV", "assay": "Inhibition of human EphA4 at 10 uM after 60 mins by TR-FRET assay; values are per cent of control"}, "[20]": {"system": "Epidermal growth factor receptor (Homo sapiens), P00533 [L858R,T790M]", "details": "10 uM", "description": "Inhibition of human EGFR T790M, L858R mutant at 10 uM after 60 mins by TR-FRET assay"}, "[21]": {"target": "T1, Mitogen-activated protein kinase 1", "assay": "Inhibition of human MAPK2 at 10 uM after 60 mins by TR-FRET assay", "details": "values are per cent of control"}, "[22]": {"target": "Serine/threonine-protein kinase WNK2 (Homo sapiens) (UniProt Q9Y3S1)", "assay": "Inhibition of human WNK2 at 10 uM after 60 mins by TR-FRET assay; values are per cent of control"}, "[23]": {"target": "Serine/threonine-protein kinase D2 (Homo sapiens) (UniProt Q9BZL6)", "assay": "Inhibition of human PKD2 at 10 uM after 60 mins by TR-FRET assay; values are per cent of control"}, "[24]": {"system": "Proto-oncogene tyrosine-protein kinase Src (Homo sapiens), P12931 [T341M]", "assay": "Inhibition of human Src T341M mutant at 10 uM after 60 mins by TR-FRET assay; values are per cent of control"}, "[25]": {"target": "Tyrosine-protein kinase ABL2 (Mus musculus) (UniProt Q4JIM5)", "assay": "Inhibition of mouse Arg at 10 uM after 60 mins by TR-FRET assay; values are per cent of control"}, "[26]": {"system": "Platelet-derived growth factor receptor alpha (Homo sapiens), P16234 [V561D]", "assay": "Inhibition of human PDGFRalpha V561D mutant at 10 uM after 60 mins by TR-FRET assay; values are per cent of control"}, "[27]": {"target": "Dual specificity mitogen-activated protein kinase kinase 7 (Homo sapiens) (UniProt O14733)", "assay": "Inhibition of human MKK7beta at 10 uM after 60 mins by TR-FRET assay", "details": "values are per cent of control"}, "[28]": {"target": "Tyrosine-protein kinase JAK3 (Homo sapiens) (UniProt P52333)", "sequence (P52333 whole entry)": "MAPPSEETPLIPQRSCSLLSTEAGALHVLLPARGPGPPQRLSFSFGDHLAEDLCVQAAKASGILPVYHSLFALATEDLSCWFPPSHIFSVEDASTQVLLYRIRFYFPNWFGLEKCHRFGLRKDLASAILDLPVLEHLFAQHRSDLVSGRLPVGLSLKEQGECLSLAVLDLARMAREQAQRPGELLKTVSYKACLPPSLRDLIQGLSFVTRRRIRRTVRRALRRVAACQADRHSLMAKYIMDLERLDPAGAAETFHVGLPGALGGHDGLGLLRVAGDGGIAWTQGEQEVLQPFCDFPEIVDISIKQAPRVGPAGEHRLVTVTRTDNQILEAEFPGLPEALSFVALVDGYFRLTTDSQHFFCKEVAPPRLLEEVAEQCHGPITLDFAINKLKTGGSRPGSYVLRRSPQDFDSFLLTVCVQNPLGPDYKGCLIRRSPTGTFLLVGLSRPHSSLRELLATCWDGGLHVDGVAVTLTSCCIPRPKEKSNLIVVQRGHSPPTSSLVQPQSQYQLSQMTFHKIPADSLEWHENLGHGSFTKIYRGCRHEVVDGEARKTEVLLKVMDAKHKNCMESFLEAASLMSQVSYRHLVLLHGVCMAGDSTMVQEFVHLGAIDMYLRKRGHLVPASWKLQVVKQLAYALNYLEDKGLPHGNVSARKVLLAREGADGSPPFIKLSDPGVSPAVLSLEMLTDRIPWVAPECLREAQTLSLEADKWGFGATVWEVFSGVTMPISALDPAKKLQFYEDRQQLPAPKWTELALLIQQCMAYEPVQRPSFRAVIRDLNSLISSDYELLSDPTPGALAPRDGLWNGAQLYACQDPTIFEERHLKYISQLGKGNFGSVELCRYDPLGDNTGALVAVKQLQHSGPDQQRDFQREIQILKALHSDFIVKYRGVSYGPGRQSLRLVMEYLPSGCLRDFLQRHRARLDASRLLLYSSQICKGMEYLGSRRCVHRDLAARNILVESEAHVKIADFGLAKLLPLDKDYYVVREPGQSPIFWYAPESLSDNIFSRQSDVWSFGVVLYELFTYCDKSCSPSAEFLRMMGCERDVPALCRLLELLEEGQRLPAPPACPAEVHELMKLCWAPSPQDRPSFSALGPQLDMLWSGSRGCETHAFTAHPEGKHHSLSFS", "assay": "Inhibition of human JAK3 at 10 uM after 60 mins by TR-FRET assay", "details": "values are per cent of control"}, "[29]": {"target": "Protein kinase C zeta type (Homo sapiens) (UniProt Q05513)", "assay": "Inhibition of human PKCzeta at 10 uM after 60 mins by TR-FRET assay; values are per cent of control"}},
  "data": [
    {"compound": "S=c1[nH]nc(-c2ccncc2)n1-c1ccc2ccccc2c1", "values": [
      {"measurement": "residual activity", "setting": "[1]", "result": 104, "unit": "%"},
      {"measurement": "residual activity", "setting": "[2]", "result": 109, "unit": "%"},
      {"measurement": "residual activity", "setting": "[3]", "result": 95, "unit": "%"},
      {"measurement": "residual activity", "setting": "[4]", "result": 96, "unit": "%"},
      {"measurement": "residual activity", "setting": "[5]", "result": 107, "unit": "%"},
      {"measurement": "residual activity", "setting": "[6]", "result": 104, "unit": "%"},
      {"measurement": "residual activity", "setting": "[7]", "result": 101, "unit": "%"},
      {"measurement": "residual activity", "setting": "[8]", "result": 105, "unit": "%"},
      {"measurement": "residual activity", "setting": "[9]", "result": 105, "unit": "%"},
      {"measurement": "residual activity", "setting": "[10]", "result": 118, "unit": "%"},
      {"measurement": "residual activity", "setting": "[11]", "result": 89, "unit": "%"},
      {"measurement": "residual activity", "setting": "[12]", "result": 101, "unit": "%"},
      {"measurement": "residual activity", "setting": "[13]", "result": 111, "unit": "%"},
      {"measurement": "residual activity", "setting": "[14]", "result": 110, "unit": "%"},
      {"measurement": "residual activity", "setting": "[15]", "result": 116, "unit": "%"},
      {"measurement": "residual activity", "setting": "[16]", "result": 114, "unit": "%"},
      {"measurement": "residual activity", "setting": "[17]", "result": 102, "unit": "%"},
      {"measurement": "residual activity", "setting": "[18]", "result": 94, "unit": "%"},
      {"measurement": "residual activity", "setting": "[19]", "result": 127, "unit": "%"},
      {"measurement": "inhibition", "setting": "[20]", "result": 88, "unit": "%"},
      {"measurement": "residual activity", "setting": "[21]", "result": 114, "unit": "%"},
      {"measurement": "residual activity", "setting": "[22]", "result": 108, "unit": "%"},
      {"measurement": "residual activity", "setting": "[23]", "result": 110, "unit": "%"},
      {"measurement": "residual activity", "setting": "[24]", "result": 113, "unit": "%"},
      {"measurement": "residual activity", "setting": "[25]", "result": 101, "unit": "%"},
      {"measurement": "residual activity", "setting": "[26]", "result": 107, "unit": "%"},
      {"measurement": "residual activity", "setting": "[27]", "result": 126, "unit": "%"},
      {"measurement": "residual activity", "setting": "[28]", "result": 147, "unit": "%"},
      {"measurement": "residual activity", "setting": "[29]", "result": 115, "unit": "%"}
    ]}
  ]
}
